Tested on: HCT116 MTAP-deleted cell lines
Test: Cell viability assay (CellTiter-Glo, 7 days), HCT116 MTAP-deleted
Type: cell-based
Details: Homo sapiens, HCT-116; cell viability assay, HCT116 MTAP-deleted; class symbols; read-out: CC50
Outline: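 HCT116 MTAP-deleted and wild-type cells exposed to serially diluted compound for 7 days at 37 °C, 5% CO2. Viability read by CellTiter-Glo luminescence; CC50 derived per line, with selectivity comparing WT to MTAP-deleted, limited solubility can inflate values marked *.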

| Compound | CC50 |
| --- | --- |
| Cc1ncn2c1c(N)nc1cnc(C(=O)N3CCC[C@@H]4Oc5cc(-c6cnn(C(F)(F)F)c6)ccc5[C@@H]43)cc12 [Ff-683, (4-amino-3-methylimidazo[1,5-a]pyrido[3,4-e]pyrazin-8-yl)((4aS,9bS)-7-(1-(trifluoromethyl)-1H-pyrazol-4-yl)-3,4,4a,9b-tetrahydrobenzofuro[3,2-b]pyridin-1(2H)-yl)methanone] | < 100 nM |
| C[C@H]1CN(C(=O)c2cc3c(cc2F)nc(N)c2cncn23)[C@H]2c3ccc(C(F)(F)F)c(F)c3C[C@H]2O1 [Ff-690, (4-amino-7-fluoroimidazo[1,5-a]quinoxalin-8-yl)((2S,4aS,9aR)-8-fluoro-2-methyl-7-(trifluoromethyl)-2,3,9,9a-tetrahydroindeno[2,1-b][1,4]oxazin-4(4aH)-yl)methanone] | < 100 nM |
| Nc1nc2cc(F)c(C(=O)N3CCO[C@@H]4Cc5c(ccc(C(F)(F)F)c5F)[C@@H]43)cc2n2cncc12 [Ff-691, (4-amino-7-fluoroimidazo[1,5-a]quinoxalin-8-yl)((4aS,9aR)-8-fluoro-7-(trifluoromethyl)-2,3,9,9a-tetrahydroindeno[2,1-b][1,4]oxazin-4(4aH)-yl)methanone] | 100 to 1000 nM |
| Cc1ncc2c3cc(C(=O)N(Cc4ccc(C(F)(F)F)cn4)[C@H](C)c4ncccn4)c(F)cc3nc(N)n12 [Fg-17, (R)-5-amino-8-fluoro-3-methyl-N-(1-(pyrimidin-2-yl)ethyl)-N-((5-(trifluoromethyl)pyridin-2-yl)methyl)imidazo[1,5-c]quinazoline-9-carboxamide] | < 100 nM |
| Cc1ncn2c1c(N)nc1cc(Cl)c(C(=O)N3CCC[C@@H]4Oc5cc(C(F)(F)F)ncc5[C@@H]43)cc12 [Fg-19, (4-amino-7-chloro-3-methylimidazo[1,5-a]quinoxalin-8-yl)((4aS,9bS)-7-(trifluoromethyl)-3,4,4a,9b-tetrahydrofuro[3,2-b:4,5-c′]dipyridin-1(2H)-yl)methanone] | < 100 nM |
| C[C@@H]1C[C@@H]2Oc3cc(C(F)(F)F)ncc3[C@@H]2N(C(=O)c2cc3c(cc2F)nc(N)c2cncn23)C1 [Fg-20, (4-amino-7-fluoroimidazo[1,5-a]quinoxalin-8-yl)((3R,4aS,9bS)-3-methyl-7-(trifluoromethyl)-3,4,4a,9b-tetrahydrofuro[3,2-b:4,5-c′]dipyridin-1(2H)-yl)methanone] | < 100 nM |
| Cc1ncn2c1c(N)nc1cc(F)c(C(=O)N3C[C@H](C)C[C@@H]4Oc5cc(C(F)(F)F)ncc5[C@@H]43)cc12 [Fg-21, (4-amino-7-fluoro-3-methylimidazo[1,5-a]quinoxalin-8-yl)((3R,4aS,9bS)-3-methyl-7-(trifluoromethyl)-3,4,4a,9b-tetrahydrofuro[3,2-b:4,5-c′]dipyridin-1(2H)-yl)methanone] | < 100 nM |
| Nc1nc2cc(F)c(C(=O)N3CCO[C@@H]4Cc5cc(OC(F)F)ccc5[C@@H]43)cc2n2cncc12 [Fg-24, (4-amino-7-fluoroimidazo[1,5-a]quinoxalin-8-yl)((4aS,9aR)-7-(difluoromethoxy)-2,3,9,9a-tetrahydroindeno[2,1-b][1,4]oxazin-4(4aH)-yl)methanone] | < 100 nM |
| Nc1nc2cc(F)c(C(=O)N3CCC[C@@H]4Oc5cc(F)ccc5[C@@H]43)cc2n2cncc12 [Fg-25, (4-amino-7-fluoroimidazo[1,5-a]quinoxalin-8-yl)((4aS,9bS)-7-fluoro-3,4,4a,9b-tetrahydrobenzofuro[3,2-b]pyridin-1(2H)-yl)methanone] | < 100 nM |
| Cc1ncn2c1c(N)nc1cc(F)c(C(=O)N3CCC[C@@H]4Oc5cc(F)ccc5[C@@H]43)cc12 [Fg-26, (4-amino-7-fluoro-3-methylimidazo[1,5-a]quinoxalin-8-yl)((4aS,9bS)-7-fluoro-3,4,4a,9b-tetrahydrobenzofuro[3,2-b]pyridin-1(2H)-yl)methanone] | < 100 nM |
| Cc1ncn2c1c(N)nc1cnc(C(=O)N3CC(C)(C)CC4Oc5cc(OC(F)(F)F)ccc5C43)cc12 (stereo not shown) [Fg-27, (4-amino-3-methylimidazo[1,5-a]pyrido[3,4-e]pyrazin-8-yl)(3,3-dimethyl-7-(trifluoromethoxy)-3,4,4a,9b-tetrahydrobenzofuro[3,2-b]pyridin-1(2H)-yl)methanone] | 100 to 1000 nM |
| Nc1nc2cnc(C(=O)N3CCC[C@@H]4Oc5cc(Cl)ccc5[C@@H]43)cc2n2cncc12 [Fg-28, (4-aminoimidazo[1,5-a]pyrido[3,4-e]pyrazin-8-yl)((4aS,9bS)-7-chloro-3,4,4a,9b-tetrahydrobenzofuro[3,2-b]pyridin-1(2H)-yl)methanone] | < 100 nM |
| Cc1ncn2c1c(N)nc1cnc(C(=O)N3CCC[C@@H]4Oc5cc(OC(F)(F)F)ccc5[C@@H]43)cc12 [Fg-30, (4-amino-3-methylimidazo[1,5-a]pyrido[3,4-e]pyrazin-8-yl)((4aS,9bS)-7-(trifluoromethoxy)-3,4,4a,9b-tetrahydrobenzofuro[3,2-b]pyridin-1(2H)-yl)methanone] | < 100 nM |
| Cc1ncn2c1c(N)nc1cnc(C(=O)N3CCC[C@@H]4Oc5cc(OC(F)(F)F)c(F)cc5[C@@H]43)cc12 [Fg-32, (4-amino-3-methylimidazo[1,5-a]pyrido[3,4-e]pyrazin-8-yl)((4aS,9bS)-8-fluoro-7-(trifluoromethoxy)-3,4,4a,9b-tetrahydrobenzofuro[3,2-b]pyridin-1(2H)-yl)methanone] | < 100 nM |
| Cc1ncn2c1c(N)nc1cc(F)c(C(=O)N3CC[C@H]4C[C@@H]3c3ccc(C(F)(F)F)nc3O4)cc12 [Fg-33, (4-amino-7-fluoro-3-methylimidazo[1,5-a]quinoxalin-8-yl)((2S,6R)-9-(trifluoromethyl)-3,4-dihydro-2H-2,6-methanopyrido[2,3-b][1,5]oxazocin-5(6H)-yl)methanone] | < 100 nM |
| Cc1ncn2c1c(N)nc1cc(F)c(C(=O)N3C[C@@H](C)O[C@@H]4Cc5cc(C(F)(F)F)ccc5[C@@H]43)cc12 [Fg-34, (4-amino-7-fluoro-3-methylimidazo[1,5-a]quinoxalin-8-yl)((2R,4aS,9aR)-2-methyl-7-(trifluoromethyl)-2,3,9,9a-tetrahydroindeno[2,1-b][1,4]oxazin-4(4aH)-yl)methanone] | < 100 nM |
| Cc1ncn2c1c(N)nc1cnc(C(=O)N3CC4(CC4)C[C@@H]4Oc5cc(C(F)(F)F)ccc5[C@@H]43)cc12 [Fg-36, (4-amino-3-methylimidazo[1,5-a]pyrido[3,4-e]pyrazin-8-yl)((4aS,9bS)-7-(trifluoromethyl)-4a,9b-dihydro-2H-spiro[benzofuro[3,2-b]pyridine-3,1′-cyclopropan]-1(4H)-yl)methanone] | < 100 nM |
| Cc1ncn2c1c(N)nc1cnc(C(=O)N3C[C@@H](C)C[C@@H]4Oc5cc(C(F)(F)F)ccc5[C@@H]43)cc12 [Fg-37, (4-amino-3-methylimidazo[1,5-a]pyrido[3,4-e]pyrazin-8-yl)((3S,4aS,9bS)-3-methyl-7-(trifluoromethyl)-3,4,4a,9b-tetrahydrobenzofuro[3,2-b]pyridin-1(2H)-yl)methanone] | < 100 nM |
| Cc1ncn2c1c(N)nc1cnc(C(=O)N3C[C@H](C)C[C@@H]4Oc5cc(C(F)(F)F)c(F)cc5[C@@H]43)cc12 [Fg-39, (4-amino-3-methylimidazo[1,5-a]pyrido[3,4-e]pyrazin-8-yl)((3R,4aS,9bS)-8-fluoro-3-methyl-7-(trifluoromethyl)-3,4,4a,9b-tetrahydrobenzofuro[3,2-b]pyridin-1(2H)-yl)methanone] | < 100 nM |
| Cc1ncc2c(N)nc3cnc(C(=O)N4CCC[C@@H]5Oc6cc(S(F)(F)(F)(F)F)ccc6[C@@H]54)cc3n12 [Fg-43, (4-amino-1-methylimidazo[1,5-a]pyrido[3,4-e]pyrazin-8-yl)((4aS,9bS)-7-(pentafluoro-16-sulfaneyl)-3,4,4a,9b-tetrahydrobenzofuro[3,2-b]pyridin-1(2H)-yl)methanone] | < 100 nM |
| Cc1ncc2c(N)nc3cnc(C(=O)N4C[C@@H](F)C[C@@H]5Oc6cc(OC(F)(F)F)ccc6[C@@H]54)cc3n12 [Fg-45, (4-amino-1-methylimidazo[1,5-a]pyrido[3,4-e]pyrazin-8-yl)((3S,4aS,9bS)-3-fluoro-7-(trifluoromethoxy)-3,4,4a,9b-tetrahydrobenzofuro[3,2-b]pyridin-1(2H)-yl)methanone] | < 100 nM |
| Cc1ncn2c1c(N)nc1ccc(C(=O)N3C[C@@H](F)C[C@@H]4Oc5cc(OC(F)(F)F)ccc5[C@@H]43)cc12 [Fg-47, (4-amino-3-methylimidazo[1,5-a]quinoxalin-8-yl)((3S,4aS,9bS)-3-fluoro-7-(trifluoromethoxy)-3,4,4a,9b-tetrahydrobenzofuro[3,2-b]pyridin-1(2H)-yl)methanone] | < 100 nM |
| CCc1cc2nc(N)c3cncn3c2cc1C(=O)N(C)[C@@H]1COc2cc(C(F)(F)F)ccc21 [Fg-52, (S)-4-amino-7-ethyl-N-methyl-N-(6-(trifluoromethyl)-2,3-dihydrobenzofuran-3-yl)imidazo[1,5-a]quinoxaline-8-carboxamide] | < 100 nM |
| Nc1nc2cc(C3CC3)c(C(=O)N3CCC[C@@H]4Oc5cc(C(F)(F)F)ccc5[C@@H]43)cc2n2cncc12 [Fg-56, (4-amino-7-cyclopropylimidazo[1,5-a]quinoxalin-8-yl)((4aS,9bS)-7-(trifluoromethyl)-3,4,4a,9b-tetrahydrobenzofuro[3,2-b]pyridin-1(2H)-yl)methanone] | 100 to 1000 nM |
| Nc1nc2cnc(C(=O)N3CC4(CC4)C[C@@H]4Oc5cc(OC(F)(F)F)ccc5[C@@H]43)cc2n2cncc12 [Fg-61, (4-aminoimidazo[1,5-a]pyrido[3,4-e]pyrazin-8-yl)((4aS,9bS)-7-(trifluoromethoxy)-4a,9b-dihydro-2H-spiro[benzofuro[3,2-b]pyridine-3,1′-cyclopropan]-1(4H)-yl)methanone] | < 100 nM |
